In US8748471B2, “2-alkyl-cycloalk(en)yl-carboxamides” (priority 2004, dated 2014):
Like-named read-outs stand apart in the source and are kept apart here.

What was measured:
Botrytis cinerea = test: Botrytis test (bean)/protective; type: in vivo; details: protective, application rate 500 g/ha, evaluation 2 days after inoculation (size of infected areas), 0% = control, 100% = no infection
Experimental: (§1) To produce a suitable preparation of active compound, 1 part by weight of active compound is mixed with the stated amounts of solvents and emulsifier, and the concentrate is diluted with water to the desired concentration.
To test for protective activity, young plants are sprayed with the preparation of active compound at the stated application rate. After the spray coating has dried on 2 small pieces of agar colonized by Botrytis cinerea are placed onto each leaf. The inoculated plants are placed in a dark chamber at about 20° C. and 100% relative atmospheric humidity.
2 days after the inoculation, the size of the infected areas on the leaves is evaluated. 0% means an efficacy which corresponds to that of the control, whereas an efficacy of 100% means that no infection is observed.

[1] = log P determination by HPLC on reverse-phase column (C 18), acidic range pH 2.3 (EEC Directive 79/831 Annex V. A8); type: physicochemical; details: for logP: Table 1 (I-c); for chromatographic logP: reverse-phase HPLC column (C 18)
Experimental: The stated log P values were determined in accordance with EEC Directive 79/831 Annex V. A8 by HPLC (High Performance Liquid Chromatography) on a reverse-phase column (C 18). Temperature: 43° C. Mobile phases for the determination in the acidic range (pH 2.3): 0.1% aqueous phosphoric acid, acetonitrile; linear gradient from 10% acetonitrile to 90% acetonitrile. Calibration was carried out using unbranched alkan-2-ones (having 3 to 16 carbon atoms) with known log P values (determination of the log P values by the retention times using linear interpolation between two successive alkanones).

Podosphaera leucotricha = test: Podosphaera test (apple)/protective; type: in vivo; details: protective, application rate 100 g/ha, evaluation 10 days after inoculation, 0% = control, 100% = no infection
Experimental: as §1
To test for protective activity, young plants are sprayed with the preparation of active compound at the stated application rate. After the spray coating has dried on, the plants are inoculated with an aqueous spore suspension of Podosphaera leucotricha. The plants are then placed in a greenhouse at about 23° C. and a relative atmospheric humidity of about 70%.
(§2) Evaluation is carried out 10 days after the inoculation. 0% means an efficacy which corresponds to that of the control, whereas an efficacy of 100% means that no infection is observed.

Venturia inaequalis = test: Venturia test (apple)/protective; type: in vivo; details: protective, application rate 100 g/ha, evaluation 10 days after inoculation, 0% = control, 100% = no infection
Experimental: as §1
To test for protective activity, young plants are sprayed with the preparation of active compound at the stated application rate. After the spray coating has dried on, the plants ate inoculated with an aqueous conidia suspension of the apple scab pathogen Venturia inaequalis and then remain in an incubation cabinet as about 20° C. and 100% relative atmospheric humidity for 1 day. The plants are then placed in a greenhouse at about 21° C. and a relative atmospheric humidity of about 90%.
as §2

Puccinia recondita = test: Puccinia test (wheat)/protective; type: in vivo; details: 240 h, protective, application rate 500 g/ha, evaluation 10 days after inoculation, 0% = control, 100% = no infection, read-out: Efficacy in %
Experimental: (§3) To produce a suitable preparation of active compound, 1 part by weight of active compound is mixed with the stated amounts of solvent and emulsifier, and the concentrate is diluted with water to the desired concentration.
To test for protective activity, young plants are sprayed with the preparation of active compound at the stated application rate. After the spray coating has dried on, the plants are sprayed with a conidia suspension of Puccinia recondita. The plants remain in an incubation cabinet at 20° C. and 100% relative atmospheric humidity for 48 hours. The plants are then placed in a greenhouse at a temperature of about 20° C. and a relative atmospheric humidity of 80%.
as §2

Alternaria solani = test: Alternaria test (tomato)/protective; type: in vivo; details: protective, application rate 750 g/ha, evaluation 7 days after inoculation, 0% = control, 100% = no infection
Experimental: as §3
To test for protective activity, young tomato plants are sprayed with the preparation of active compound at the stated application rate. 1 day after the treatment, the plants are inoculated with a spore suspension of Alternaria solani and then remain at 100% relative atmospheric humidity and 20° C. for 24 h. The plants then remain at 96% relative atmospheric humidity and a temperature of 20° C.
Evaluation is carried out 7 days after the inoculation. 0% means an efficacy which corresponds to that of the control, whereas an efficacy of 100% means that no infection is observed.

[2] = pH 2.3, HPLC C18, 43° C., main diastereomer or, where several values in a cell, the individual diastereomers
[3] = pH 2.3, Table 1 (I-c), pH 2.3, HPLC C18, 43° C., main diastereomer or, where several values in a cell, the individual diastereomers, read-out: logP

## Cc1nc(C(F)F)c(C(=O)NC2CCCCC2C(C)CC(C)C)s1 (centres unmarked) [I-c-4, 4-(difluoromethyl)-N-[2-(1,3-dimethylbutyl)cyclohexyl]-2-methyl-1,3-thiazole-5-carboxamide]
Botrytis cinerea
  Efficacy in %: 95%
[1]; Example 1, pH 2.3, two values = mixture of diastereomers
  log P (pH 2.3): 4.53
[1]; [2]
  logP: 4.53
[1]; [3]
  chromatographic logP: 4.45
[1]; pH 2.3, text of Example 1, pH 2.3, two values = mixture of diastereomers, read-out: log P (pH 2.3)
  chromatographic logP: 4.45
Podosphaera leucotricha
  Efficacy in %: 100%
Venturia inaequalis
  Efficacy in %: 98%
Puccinia recondita
  pest or weed control at 500 g/ha: 100%
Alternaria solani
  Efficacy in %: 100%

## CC(C)CC(C)C1CCCCC1NC(=O)c1nccnc1Cl (centres unmarked) [I-c-5]
Botrytis cinerea
  Efficacy in %: 99%
[1]; [2]
  logP: 4.23
[1]; [3]
  chromatographic logP: 4.12
Podosphaera leucotricha
  Efficacy in %: 100%
Venturia inaequalis
  Efficacy in %: 100%
Puccinia recondita
  pest or weed control at 500 g/ha: 100%
Alternaria solani
  Efficacy in %: 100%

## CC(C)CC(C)C1CCCCC1NC(=O)c1cn(C)nc1C(F)F (centres unmarked) [I-c-7]
Botrytis cinerea
  Efficacy in %: 94%
[1]; [2]
  logP: 4.28
[1]; [3]
  chromatographic logP: 3.88
Podosphaera leucotricha
  Efficacy in %: 100%
Venturia inaequalis
  Efficacy in %: 100%
Puccinia recondita
  pest or weed control at 500 g/ha: 100%
Alternaria solani
  Efficacy in %: 100%
